Data from patent publication US11214594B2, “Antimicrobial peptide having synergistic antibacterial effect with antibiotics on multidrug resistant bacteria, and use thereof” (priority 2016, dated 2022).
≈ marks a conversion by molar mass, not a printed value. Where a SMILES comes first, the peptide text is derived from it.

Legend:
[1] = system: A. baumannii; test: MIC of antibiotic during combined treatment with antimicrobial peptide; format: cell-based, Acinetobacter baumannii; details: for Antibiotic MIC, Erythromycin / Antibiotic MIC, Linezolid / Antibiotic MIC, Vancomycin: A. baumannii
How it was run: (§1)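 Using MH broth, we determined combination MICs by titrating the antibiotic into wells and then repeating under the reverse dilution scheme.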

[2] = system: MRSA 3114; format: cell-based, Staphylococcus aureus; details: 3114
How it was run: (§2)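 Broth microdilution in MH medium: bacterial strains diluted to 2×10^6 CFU were mixed with equal volumes of peptide serially diluted twofold in MH medium.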

[3] = system: MRSA 3126; format: cell-based, Staphylococcus aureus; details: 3126
How it was run: as §2

[4] = system: E. coli; test: MIC of antibiotic during combined treatment with antimicrobial peptide; format: cell-based, Escherichia coli; details: for Antibiotic MIC, Erythromycin / Antibiotic MIC, Linezolid / Antibiotic MIC, Vancomycin: E. coli
How it was run: as §1

[5] = system: MDREC 1238; format: cell-based, Escherichia coli
How it was run: as §2

[6] = system: MDRST 8007; test: Minimal inhibitory concentration (MIC), single agent; format: cell-based, Salmonella typhimurium; details: agent alone
How it was run: as §2

[7] = system: MDREC 1229; test: MIC of antibiotic during combined treatment with antimicrobial peptide; format: cell-based, Escherichia coli
How it was run: (§3)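 Broth microdilution in MH medium; strains were diluted to 2×10^6 CFU per ml before plating. Peptide was serially diluted stepwise at 2:1 starting from its MIC, and MH-diluted antibiotic was then added to determine MIC. The reversed arrangement was also tested.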

[8] = system: S. epidermidis; test: microbe, parasite or virus in culture; format: cell-based, Staphylococcus epidermidis
How it was run: as §2

[9] = system: MDRAB 12035; test: MIC of antibiotic during combined treatment with antimicrobial peptide; format: cell-based, Acinetobacter baumannii
How it was run: as §3

[10] = system: P. aeruginosa; test: microbe, parasite or virus in culture; format: cell-based, Pseudomonas aeruginosa
How it was run: as §2

[11] = system: B. subtilis; test: microbe, parasite or virus in culture; format: cell-based, Bacillus subtilis
How it was run: as §2

[12] = system: MDRPA 2003; format: cell-based, Pseudomonas aeruginosa
How it was run: as §2

[13] = system: MDRPA 2002; format: cell-based, Pseudomonas aeruginosa
How it was run: as §2

[14] = system: MDREC 1229; test: microbe, parasite or virus in culture; format: cell-based, Escherichia coli
How it was run: as §2

[15] = system: E. coli; test: microbe, parasite or virus in culture; format: cell-based, Escherichia coli; details: 16 h
How it was run: as §2

[16] = system: S. aureus; test: microbe, parasite or virus in culture; format: cell-based, Staphylococcus aureus
How it was run: as §2

[17] = combined with peptide at 1 μg/ml
[18] = combined with peptide at 2 μg/ml
[19] = combined with peptide at 4 μg/ml
[20] = combined with peptide at 6 μg/ml
[21] = combined with peptide at 8 μg/ml
[22] = combined with peptide at 16 μg/ml
[23] = combined with peptide at 32 μg/ml
[24] = combined with peptide at 64 μg/ml
[25] = peptide treatment concentration 1 μg/ml
[26] = peptide treatment concentration 2 μg/ml
[27] = peptide treatment concentration 4 μg/ml
[28] = peptide treatment concentration 6 μg/ml
[29] = peptide treatment concentration 8 μg/ml
[30] = peptide treatment concentration 16 μg/ml
[31] = peptide treatment concentration 32 μg/ml
[32] = peptide treatment concentration 64 μg/ml

CC[C@H](C)[C@H](NC(=O)[C@H](CCCCN)NC(=O)[C@H](Cc1c[nH]c2ccccc12)NC(=O)[C@@H](N)CCCNC(=N)N)C(=O)N[C@@H](Cc1ccccc1)C(=O)N[C@@H](CCCCN)C(=O)N[C@@H](CCCCN)C(=O)N[C@H](C(=O)N1CCC[C@H]1C(=O)N[C@@H](CCCCN)C(=O)N[C@@H](Cc1ccccc1)C(=O)N[C@@H](CC(C)C)C(=O)N[C@@H](Cc1c[nH]cn1)C(=O)N[C@@H](CO)C(=O)N[C@@H](Cc1ccccc1)C(=O)N[C@@H](CCCCN)C(=O)N[C@@H](CCCCN)C(=O)N[C@@H](Cc1ccccc1)C(N)=O)[C@@H](C)CC [PapMA-5, RWK IFK KIP KFL HSF KKF-NH2] (H-RWKIFKKIPKFLHSFKKF-NH2; N-terminus assumed)
Synergistic effect of antibacterial activity with existing antibiotics compared with PapMA-1 ([1]; A. baumannii and MDRAB 12035): level similar to that of PapMA-1 peptide
Antibiotic MIC, Erythromycin [1, 17]: 32 µg/mL
Antibiotic MIC, Linezolid [1, 17]: 128 µg/mL
Antibiotic MIC, Vancomycin [1, 17]: >128 µg/mL
Antibiotic MIC, Erythromycin [1, 18]: 16 µg/mL
Antibiotic MIC, Linezolid [1, 18]: 64 µg/mL
Antibiotic MIC, Vancomycin [1, 18]: >128 µg/mL
Antibiotic MIC, Erythromycin [1, 19]: 8 µg/mL
Antibiotic MIC, Linezolid [1, 19]: 16 µg/mL
Antibiotic MIC, Vancomycin [1, 19]: 32 µg/mL
Antibiotic MIC, Erythromycin [1, 20]: 4 µg/mL
Antibiotic MIC, Linezolid [1, 20]: 8 µg/mL
Antibiotic MIC, Vancomycin [1, 20]: 16 µg/mL
Antibiotic MIC, Erythromycin [1, 21]: 0.5 µg/mL
Antibiotic MIC, Linezolid [1, 21]: 4 µg/mL
Antibiotic MIC, Vancomycin [1, 21]: 8 µg/mL
Antibiotic MIC, Erythromycin [1, 22]: 0.25 µg/mL
Antibiotic MIC, Linezolid [1, 22]: 4 µg/mL
Antibiotic MIC, Vancomycin [1, 22]: 4 µg/mL
Antibiotic MIC, Erythromycin [1, 23]: 0.125 µg/mL
Antibiotic MIC, Linezolid [1, 23]: 2 µg/mL
Antibiotic MIC, Vancomycin [1, 23]: 2 µg/mL
Antibiotic MIC, Erythromycin [1, 24]: 0 µg/mL
Antibiotic MIC, Linezolid [1, 24]: 0 µg/mL
Antibiotic MIC, Vancomycin [1, 24]: 0 µg/mL
Minimal inhibitory concentration MIC [2]: >128 µg/mL
Minimal inhibitory concentration MIC [3]: >128 µg/mL
Synergistic effect of antibacterial activity with existing antibiotics compared with PapMA-1 ([4]; E. coli and MDREC1229): level similar to that of the PapMA-1 peptide
Antibiotic MIC, Erythromycin ([4]; erythromycin combined with peptide at 1 μg/ml): 128 µg/mL
Antibiotic MIC, Erythromycin ([4]; erythromycin combined with peptide at 2 μg/ml): 64 µg/mL
Antibiotic MIC, Erythromycin ([4]; erythromycin combined with peptide at 4 μg/ml): 32 µg/mL
Antibiotic MIC, Erythromycin ([4]; erythromycin combined with peptide at 6 μg/ml): 8 µg/mL
Antibiotic MIC, Erythromycin ([4]; erythromycin combined with peptide at 8 μg/ml): 2 µg/mL
Antibiotic MIC, Erythromycin ([4]; erythromycin combined with peptide at 16 μg/ml): 0.5 µg/mL
Antibiotic MIC, Erythromycin ([4]; erythromycin combined with peptide at 32 μg/ml): 0.5 µg/mL
Antibiotic MIC, Erythromycin ([4]; erythromycin combined with peptide at 64 μg/ml): 0 µg/mL
Antibiotic MIC, Linezolid ([4]; linezolid combined with peptide at 1 μg/ml): >128 µg/mL
Antibiotic MIC, Linezolid ([4]; linezolid combined with peptide at 2 μg/ml): 128 µg/mL
Antibiotic MIC, Linezolid ([4]; linezolid combined with peptide at 4 μg/ml): 64 µg/mL
Antibiotic MIC, Linezolid ([4]; linezolid combined with peptide at 6 μg/ml): 32 µg/mL
Antibiotic MIC, Linezolid ([4]; linezolid combined with peptide at 8 μg/ml): 16 µg/mL
Antibiotic MIC, Linezolid ([4]; linezolid combined with peptide at 16 μg/ml): 8 µg/mL
Antibiotic MIC, Linezolid ([4]; linezolid combined with peptide at 32 μg/ml): 2 µg/mL
Antibiotic MIC, Linezolid ([4]; linezolid combined with peptide at 64 μg/ml): 0 µg/mL
Antibiotic MIC, Vancomycin ([4]; vancomycin combined with peptide at 1 μg/ml): >128 µg/mL
Antibiotic MIC, Vancomycin ([4]; vancomycin combined with peptide at 2 μg/ml): >128 µg/mL
Antibiotic MIC, Vancomycin ([4]; vancomycin combined with peptide at 4 μg/ml): 128 µg/mL
Antibiotic MIC, Vancomycin ([4]; vancomycin combined with peptide at 6 μg/ml): 64 µg/mL
Antibiotic MIC, Vancomycin ([4]; vancomycin combined with peptide at 8 μg/ml): 32 µg/mL
Antibiotic MIC, Vancomycin ([4]; vancomycin combined with peptide at 16 μg/ml): 8 µg/mL
Antibiotic MIC, Vancomycin ([4]; vancomycin combined with peptide at 32 μg/ml): 2 µg/mL
Antibiotic MIC, Vancomycin ([4]; vancomycin combined with peptide at 64 μg/ml): 0 µg/mL
Minimal inhibitory concentration MIC [5]: 64 µg/mL (≈ 26.9 µM)
Minimal inhibitory concentration MIC [6]: 64 µg/mL (≈ 26.9 µM)
Antibiotic MIC, Erythromycin [7, 25]: 128 µg/mL
Antibiotic MIC, Linezolid [7, 25]: 128 µg/mL
Antibiotic MIC, Vancomycin [7, 25]: >128 µg/mL
Antibiotic MIC, Erythromycin [7, 26]: 64 µg/mL
Antibiotic MIC, Linezolid [7, 26]: 128 µg/mL
Antibiotic MIC, Vancomycin [7, 26]: >128 µg/mL
Antibiotic MIC, Erythromycin [7, 27]: 16 µg/mL
Antibiotic MIC, Linezolid [7, 27]: 64 µg/mL
Antibiotic MIC, Vancomycin [7, 27]: >128 µg/mL
Antibiotic MIC, Erythromycin [7, 28]: 8 µg/mL
Antibiotic MIC, Linezolid [7, 28]: 32 µg/mL
Antibiotic MIC, Vancomycin [7, 28]: >128 µg/mL
Antibiotic MIC, Erythromycin [7, 29]: 4 µg/mL
Antibiotic MIC, Linezolid [7, 29]: 32 µg/mL
Antibiotic MIC, Vancomycin [7, 29]: 64 µg/mL
Antibiotic MIC, Erythromycin [7, 30]: 1 µg/mL
Antibiotic MIC, Linezolid [7, 30]: 16 µg/mL
Antibiotic MIC, Vancomycin [7, 30]: 16 µg/mL
Antibiotic MIC, Erythromycin [7, 31]: 0.25 µg/mL
Antibiotic MIC, Linezolid [7, 31]: 4 µg/mL
Antibiotic MIC, Vancomycin [7, 31]: 8 µg/mL
Antibiotic MIC, Erythromycin [7, 32]: 0 µg/mL
Antibiotic MIC, Linezolid [7, 32]: 0 µg/mL
Antibiotic MIC, Vancomycin [7, 32]: 0 µg/mL
Minimal inhibitory concentration MIC [8]: >128 µg/mL
Erythromycin MIC during combined treatment with peptide [9, 25]: 32 µg/mL
Linezolid MIC during combined treatment with peptide [9, 25]: >128 µg/mL
Vancomycin MIC during combined treatment with peptide [9, 25]: >128 µg/mL
Erythromycin MIC during combined treatment with peptide [9, 26]: 32 µg/mL
Linezolid MIC during combined treatment with peptide [9, 26]: 128 µg/mL
Vancomycin MIC during combined treatment with peptide [9, 26]: >128 µg/mL
Erythromycin MIC during combined treatment with peptide [9, 27]: 16 µg/mL
Linezolid MIC during combined treatment with peptide [9, 27]: 64 µg/mL
Vancomycin MIC during combined treatment with peptide [9, 27]: 128 µg/mL
Erythromycin MIC during combined treatment with peptide [9, 28]: 2 µg/mL
Linezolid MIC during combined treatment with peptide [9, 28]: 16 µg/mL
Vancomycin MIC during combined treatment with peptide [9, 28]: 32 µg/mL
Erythromycin MIC during combined treatment with peptide [9, 29]: 1 µg/mL
Linezolid MIC during combined treatment with peptide [9, 29]: 8 µg/mL
Vancomycin MIC during combined treatment with peptide [9, 29]: 16 µg/mL
Erythromycin MIC during combined treatment with peptide [9, 30]: 0.25 µg/mL
Linezolid MIC during combined treatment with peptide [9, 30]: 8 µg/mL
Vancomycin MIC during combined treatment with peptide [9, 30]: 8 µg/mL
Erythromycin MIC during combined treatment with peptide [9, 31]: 0.125 µg/mL
Linezolid MIC during combined treatment with peptide [9, 31]: 4 µg/mL
Vancomycin MIC during combined treatment with peptide [9, 31]: 4 µg/mL
Erythromycin MIC during combined treatment with peptide [9, 32]: 0 µg/mL
Linezolid MIC during combined treatment with peptide [9, 32]: 0 µg/mL
Vancomycin MIC during combined treatment with peptide [9, 32]: 0 µg/mL
Minimal inhibitory concentration MIC [10]: 16 µg/mL (≈ 6.73 µM)
Minimal inhibitory concentration MIC [11]: >128 µg/mL
Minimal inhibitory concentration MIC [12]: 16 µg/mL (≈ 6.73 µM)
Minimal inhibitory concentration MIC [13]: 16 µg/mL (≈ 6.73 µM)
Minimal inhibitory concentration MIC [14]: 64 µg/mL (≈ 26.9 µM)
Minimal inhibitory concentration MIC [15]: 64 µg/mL (≈ 26.9 µM)
Minimal inhibitory concentration MIC [16]: >128 µg/mL
